In patent US11208412B2 (DAEGU-GYEONGBUK MEDICAL INNOVATION FOUNDATION, priority 2017, dated 2021):

Experiments:
Assay in all cases: Kinase selectivity, DiscoverX scanMAX Kinase assay panel (% control)
Type in all cases: binding
[1] = target: T1, kinases of the scanMAX Kinase assay panel (Homo sapiens, UniProt P15056, V600E); details: BRAF(V600E); 1 uM
T1 construct: purchased DiscoverX Co. (contract measurement) scanMAX Kinase assay panel
How it was run: (§1)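 Each enzyme is treated with drug at 1 uM in DMSO, then signal is scaled between a positive control (0%) and DMSO (100%) to give % control. Kinases with % control under 35% are scored as inhibited.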

[2] = target: T2, kinases of the scanMAX Kinase assay panel (Homo sapiens, UniProt P51617); details: IRAK1; 1 uM
T2 construct: purchased DiscoverX Co. (contract measurement) scanMAX Kinase assay panel
How it was run: as §1

[3] = target: T3, kinases of the scanMAX Kinase assay panel (Homo sapiens, UniProt P42679); details: CTK; 1 uM
T3 construct: purchased DiscoverX Co. (contract measurement) scanMAX Kinase assay panel
T3 sequence (P42679 1-507): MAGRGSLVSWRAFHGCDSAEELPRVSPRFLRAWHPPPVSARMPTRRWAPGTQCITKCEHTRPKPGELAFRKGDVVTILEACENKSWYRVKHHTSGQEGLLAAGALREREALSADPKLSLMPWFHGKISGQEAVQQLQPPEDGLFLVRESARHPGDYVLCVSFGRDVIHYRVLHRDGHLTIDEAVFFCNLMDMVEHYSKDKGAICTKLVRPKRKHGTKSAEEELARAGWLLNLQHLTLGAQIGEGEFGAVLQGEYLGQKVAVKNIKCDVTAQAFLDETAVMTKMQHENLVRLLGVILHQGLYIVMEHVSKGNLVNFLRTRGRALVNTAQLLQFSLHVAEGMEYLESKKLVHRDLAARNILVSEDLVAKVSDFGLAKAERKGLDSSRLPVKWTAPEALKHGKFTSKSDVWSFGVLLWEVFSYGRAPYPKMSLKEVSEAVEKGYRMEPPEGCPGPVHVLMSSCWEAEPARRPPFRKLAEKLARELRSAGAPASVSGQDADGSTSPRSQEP
How it was run: as §1

[4] = target: T4, kinases of the scanMAX Kinase assay panel (Homo sapiens, UniProt Q06418); details: kinase TYRO3; 1 uM in DMSO
T4 construct: purchased DiscoverX Co. (contract measurement) scanMAX Kinase assay panel
T4 sequence (Q06418 41-890): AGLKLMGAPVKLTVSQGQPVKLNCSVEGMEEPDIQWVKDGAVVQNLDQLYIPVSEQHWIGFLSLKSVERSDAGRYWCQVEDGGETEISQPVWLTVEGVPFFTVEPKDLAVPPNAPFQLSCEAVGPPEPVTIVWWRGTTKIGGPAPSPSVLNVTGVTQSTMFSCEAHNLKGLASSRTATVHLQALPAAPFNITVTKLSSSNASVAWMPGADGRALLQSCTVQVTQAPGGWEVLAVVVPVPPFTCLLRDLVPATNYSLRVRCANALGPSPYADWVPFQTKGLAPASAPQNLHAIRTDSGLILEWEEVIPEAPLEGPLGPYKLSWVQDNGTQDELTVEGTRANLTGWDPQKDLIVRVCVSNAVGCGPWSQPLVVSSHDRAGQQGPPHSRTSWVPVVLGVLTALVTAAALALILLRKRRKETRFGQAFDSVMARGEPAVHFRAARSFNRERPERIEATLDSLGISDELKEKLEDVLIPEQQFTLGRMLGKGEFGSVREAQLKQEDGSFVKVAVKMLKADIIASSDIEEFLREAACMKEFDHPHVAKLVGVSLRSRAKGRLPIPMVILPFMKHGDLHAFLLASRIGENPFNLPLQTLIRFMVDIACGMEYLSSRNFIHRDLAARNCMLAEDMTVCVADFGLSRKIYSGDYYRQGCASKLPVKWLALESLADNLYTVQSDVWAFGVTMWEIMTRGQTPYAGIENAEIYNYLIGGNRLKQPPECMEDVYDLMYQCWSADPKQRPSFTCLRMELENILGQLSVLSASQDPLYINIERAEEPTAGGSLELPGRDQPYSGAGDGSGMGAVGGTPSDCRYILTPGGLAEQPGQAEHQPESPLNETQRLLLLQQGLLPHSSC
How it was run: as §1

[5] = target: T5, kinases of the scanMAX Kinase assay panel (Homo sapiens, UniProt P00519, F317I); details: 1 uM
T5 construct: purchased DiscoverX Co. (contract measurement) scanMAX Kinase assay panel
How it was run: as §1

[6] = target: T6, kinases of the scanMAX Kinase assay panel (Homo sapiens, UniProt P49760); details: CLK2; 1 uM
T6 construct: purchased DiscoverX Co. (contract measurement) scanMAX Kinase assay panel
How it was run: as §1

[7] = target: T7, kinases of the scanMAX Kinase assay panel (Homo sapiens, UniProt P57058); details: HUNK; 1 uM
T7 construct: purchased DiscoverX Co. (contract measurement) scanMAX Kinase assay panel
T7 sequence (P57058 1-714): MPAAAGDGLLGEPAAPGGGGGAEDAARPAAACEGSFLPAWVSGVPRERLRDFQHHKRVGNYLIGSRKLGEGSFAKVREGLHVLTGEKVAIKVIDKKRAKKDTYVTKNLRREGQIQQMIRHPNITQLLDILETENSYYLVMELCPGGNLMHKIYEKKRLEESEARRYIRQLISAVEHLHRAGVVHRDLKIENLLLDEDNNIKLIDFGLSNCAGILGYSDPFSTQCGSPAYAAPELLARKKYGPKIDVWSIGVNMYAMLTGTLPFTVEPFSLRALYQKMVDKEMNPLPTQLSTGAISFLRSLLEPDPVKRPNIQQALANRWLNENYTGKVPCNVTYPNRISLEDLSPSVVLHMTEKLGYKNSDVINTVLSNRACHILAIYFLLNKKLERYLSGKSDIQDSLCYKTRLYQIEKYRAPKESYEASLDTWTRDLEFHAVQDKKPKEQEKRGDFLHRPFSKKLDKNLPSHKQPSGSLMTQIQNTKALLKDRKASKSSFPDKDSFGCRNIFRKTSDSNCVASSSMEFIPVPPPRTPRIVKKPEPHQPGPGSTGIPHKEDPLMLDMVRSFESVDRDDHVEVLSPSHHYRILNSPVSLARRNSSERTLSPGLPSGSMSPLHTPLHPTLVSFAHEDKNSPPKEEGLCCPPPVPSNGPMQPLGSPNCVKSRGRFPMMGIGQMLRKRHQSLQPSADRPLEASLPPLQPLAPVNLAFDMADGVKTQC
How it was run: as §1

[8] = target: T8, kinases of the scanMAX Kinase assay panel (Homo sapiens, UniProt Q6P2M8); details: CAMK1B; 1 uM
T8 construct: purchased DiscoverX Co. (contract measurement) scanMAX Kinase assay panel
How it was run: as §1

T6 sequence (P49760 whole entry): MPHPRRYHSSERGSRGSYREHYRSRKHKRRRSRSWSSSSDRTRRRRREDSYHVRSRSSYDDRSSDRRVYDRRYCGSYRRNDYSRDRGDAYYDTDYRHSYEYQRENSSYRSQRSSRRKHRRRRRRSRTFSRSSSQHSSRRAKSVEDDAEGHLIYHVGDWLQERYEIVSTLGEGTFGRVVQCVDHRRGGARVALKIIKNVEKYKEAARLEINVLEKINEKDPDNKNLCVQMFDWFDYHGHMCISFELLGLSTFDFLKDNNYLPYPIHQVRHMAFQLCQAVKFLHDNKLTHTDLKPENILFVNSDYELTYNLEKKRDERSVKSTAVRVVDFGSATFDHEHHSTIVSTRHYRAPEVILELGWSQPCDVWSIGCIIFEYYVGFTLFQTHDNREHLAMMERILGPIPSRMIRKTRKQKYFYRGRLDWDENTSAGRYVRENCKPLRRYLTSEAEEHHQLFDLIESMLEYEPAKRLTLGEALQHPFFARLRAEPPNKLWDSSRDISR
T8 sequence (Q6P2M8 whole entry): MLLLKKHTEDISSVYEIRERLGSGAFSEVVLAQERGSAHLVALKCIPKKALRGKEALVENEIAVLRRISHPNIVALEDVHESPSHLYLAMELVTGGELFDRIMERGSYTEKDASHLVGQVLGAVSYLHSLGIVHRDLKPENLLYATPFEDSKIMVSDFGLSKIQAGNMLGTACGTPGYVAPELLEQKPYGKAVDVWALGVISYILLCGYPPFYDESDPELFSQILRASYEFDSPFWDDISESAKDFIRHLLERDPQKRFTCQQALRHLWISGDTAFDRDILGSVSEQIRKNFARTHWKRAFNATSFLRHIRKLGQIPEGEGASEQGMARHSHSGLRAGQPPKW
T2 sequence (P51617 whole entry): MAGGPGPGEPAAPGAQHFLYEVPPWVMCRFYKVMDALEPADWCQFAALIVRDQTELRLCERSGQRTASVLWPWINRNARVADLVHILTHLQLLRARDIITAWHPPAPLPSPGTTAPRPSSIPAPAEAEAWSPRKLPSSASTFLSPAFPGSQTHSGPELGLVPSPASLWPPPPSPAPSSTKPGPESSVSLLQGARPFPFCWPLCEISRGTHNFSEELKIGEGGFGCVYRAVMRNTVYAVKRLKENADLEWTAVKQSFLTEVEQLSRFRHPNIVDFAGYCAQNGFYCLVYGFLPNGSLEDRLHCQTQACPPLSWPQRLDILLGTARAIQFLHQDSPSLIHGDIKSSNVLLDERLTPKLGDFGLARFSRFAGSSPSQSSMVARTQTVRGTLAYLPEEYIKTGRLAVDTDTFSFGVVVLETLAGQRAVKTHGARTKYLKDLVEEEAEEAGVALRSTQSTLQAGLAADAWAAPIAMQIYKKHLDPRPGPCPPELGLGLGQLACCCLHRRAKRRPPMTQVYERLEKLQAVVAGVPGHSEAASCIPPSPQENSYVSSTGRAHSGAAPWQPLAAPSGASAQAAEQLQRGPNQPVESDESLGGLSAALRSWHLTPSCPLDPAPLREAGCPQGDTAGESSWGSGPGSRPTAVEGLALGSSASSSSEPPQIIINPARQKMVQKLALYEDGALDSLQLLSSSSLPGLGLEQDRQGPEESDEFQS
T5 sequence (P00519 whole entry F317I): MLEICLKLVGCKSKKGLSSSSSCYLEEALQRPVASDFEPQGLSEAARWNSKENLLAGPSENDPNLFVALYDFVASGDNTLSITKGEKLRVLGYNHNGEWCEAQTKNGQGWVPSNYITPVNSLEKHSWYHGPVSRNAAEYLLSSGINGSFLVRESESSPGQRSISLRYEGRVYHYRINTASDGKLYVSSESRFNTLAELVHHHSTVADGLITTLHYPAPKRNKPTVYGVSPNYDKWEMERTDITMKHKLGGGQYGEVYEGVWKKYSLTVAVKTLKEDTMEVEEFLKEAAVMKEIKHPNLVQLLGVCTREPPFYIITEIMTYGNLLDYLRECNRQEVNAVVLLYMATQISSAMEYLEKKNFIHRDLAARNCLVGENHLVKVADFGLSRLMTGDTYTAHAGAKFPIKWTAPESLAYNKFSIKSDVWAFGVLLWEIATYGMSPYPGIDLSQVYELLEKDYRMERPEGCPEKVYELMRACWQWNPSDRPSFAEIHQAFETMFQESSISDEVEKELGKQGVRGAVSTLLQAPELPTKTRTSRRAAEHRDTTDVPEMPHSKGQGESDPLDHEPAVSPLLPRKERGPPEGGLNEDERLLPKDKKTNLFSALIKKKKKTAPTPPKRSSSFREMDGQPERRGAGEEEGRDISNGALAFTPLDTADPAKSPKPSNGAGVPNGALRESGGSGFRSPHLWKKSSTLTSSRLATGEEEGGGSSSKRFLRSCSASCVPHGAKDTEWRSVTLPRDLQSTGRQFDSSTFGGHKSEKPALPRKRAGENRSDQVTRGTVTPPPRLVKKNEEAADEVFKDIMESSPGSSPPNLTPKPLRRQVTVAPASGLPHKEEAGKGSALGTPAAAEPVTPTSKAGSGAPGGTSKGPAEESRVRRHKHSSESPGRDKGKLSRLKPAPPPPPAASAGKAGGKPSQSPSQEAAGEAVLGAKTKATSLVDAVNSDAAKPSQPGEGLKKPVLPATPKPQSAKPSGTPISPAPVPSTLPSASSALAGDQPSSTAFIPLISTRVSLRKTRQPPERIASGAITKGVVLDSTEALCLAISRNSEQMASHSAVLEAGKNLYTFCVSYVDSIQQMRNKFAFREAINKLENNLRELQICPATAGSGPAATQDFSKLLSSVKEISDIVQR
T1 sequence (P15056 whole entry V600E): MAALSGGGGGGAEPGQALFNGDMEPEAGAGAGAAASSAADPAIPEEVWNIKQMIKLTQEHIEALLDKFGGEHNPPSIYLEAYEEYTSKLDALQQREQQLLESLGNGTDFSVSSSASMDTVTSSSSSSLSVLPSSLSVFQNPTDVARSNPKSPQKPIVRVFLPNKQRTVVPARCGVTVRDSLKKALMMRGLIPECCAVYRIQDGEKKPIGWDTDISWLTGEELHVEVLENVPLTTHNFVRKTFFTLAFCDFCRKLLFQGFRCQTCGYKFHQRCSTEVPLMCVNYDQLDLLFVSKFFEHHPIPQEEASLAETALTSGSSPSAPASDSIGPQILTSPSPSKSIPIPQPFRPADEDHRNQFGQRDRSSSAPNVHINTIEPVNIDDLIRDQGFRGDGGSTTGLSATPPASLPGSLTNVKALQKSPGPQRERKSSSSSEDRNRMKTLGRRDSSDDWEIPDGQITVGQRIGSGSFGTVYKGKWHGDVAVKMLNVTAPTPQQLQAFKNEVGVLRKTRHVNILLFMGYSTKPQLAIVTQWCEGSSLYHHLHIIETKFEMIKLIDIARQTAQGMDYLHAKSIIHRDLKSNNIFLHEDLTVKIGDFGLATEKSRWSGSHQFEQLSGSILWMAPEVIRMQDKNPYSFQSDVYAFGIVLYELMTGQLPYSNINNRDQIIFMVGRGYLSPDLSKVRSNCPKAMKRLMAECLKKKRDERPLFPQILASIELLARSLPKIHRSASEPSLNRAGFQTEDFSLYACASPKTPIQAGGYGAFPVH

With `CNc1nc(Nc2ccc(C(=O)N3CCOCC3)cc2OC)nc2[nH]cc(C#N)c12` [Example 1, 2-((2-methoxy-4-(morpholine-4-carbonyl)phenyl)amino)-4-(methylamino)-7H-pyrrolo[2,3-d]pyrimidine-5-carbonitrile] the remaining binding at 1 µM [1] was 95%, the remaining binding at 1 µM [2] was 75% and the remaining binding at 1 µM [3] was 98%. For the same molecule, the remaining binding at 1 µM [4] was 100%, the remaining binding at 1 µM ([5]; ABL1(F317I)-nonphosphorylated) was 99% and the remaining binding at 1 µM ([5]; ABL1(F317I)-phosphorylated) was 54%. For the same molecule, the remaining binding at 1 µM [6] was 5.9%, the remaining binding at 1 µM [7] was 5.3% and the remaining binding at 1 µM [8] was 45%.
For `CC1(Nc2nc(Nc3cnn([C@H]4CCN(C5COC5)C[C@@H]4F)c3Cl)nc3[nH]cc(C#N)c23)CC1` [Example 52, 2-((5-chloro-1-((3S,4S)-3-fluoro-1-(oxetane-3-yl)piperidine-4-yl)-1H-pyrazole-4-yl)amino)((1-methylcyclopropyl)amino)-7H-pyrrolo[2,3-d]pyrimidine-5-carbonitrile], the remaining binding at 1 µM [1] was 100%, the remaining binding at 1 µM [2] was 1.4% and the remaining binding at 1 µM [3] was 47%. It also gave a remaining binding at 1 µM [4] of 45%, a remaining binding at 1 µM ([5]; ABL1(F317I)-nonphosphorylated) of 25% and a remaining binding at 1 µM ([5]; ABL1(F317I)-phosphorylated) of 7.6%. It also gave a remaining binding at 1 µM [6] of 2.6%, a remaining binding at 1 µM [7] of 51% and a remaining binding at 1 µM [8] of 64%.
Work on `CCNc1nc(Nc2ccc(C(=O)N3CCC(N4CCOCC4)CC3)cc2OC)nc2[nH]cc(C(F)(F)F)c12` [Example 104, (4-((4-(ethylamino)-5-(trifluoromethyl)-7H-pyrrolo[2,3-d]pyrimidine-2-yl)amino)-3-methoxyphenyl)(4-morpholinopiperidine-1-yl)methanone] yielded a remaining binding at 1 µM [1] of 100%, a remaining binding at 1 µM [2] of 100% and a remaining binding at 1 µM [3] of 100%. For the same molecule, the remaining binding at 1 µM [4] was 100%, the remaining binding at 1 µM ([5]; ABL1(F317I)-nonphosphorylated) was 56% and the remaining binding at 1 µM ([5]; ABL1(F317I)-phosphorylated) was 29%. It also gave a remaining binding at 1 µM [6] of 0.9%, a remaining binding at 1 µM [7] of 0.7% and a remaining binding at 1 µM [8] of 21%.
